Like-named read-outs stand apart in the source and are kept apart here.
Assay: Example 11: plasma pharmacokinetics (toxicokinetics) of tozadenant in mice after twice daily oral administration
Format: in vivo, Crl:CD1(ICR) mice
Set-up: Cmax/D / AUC0-24/D: unit not given beside the values
Details: for AUC(0-t) / AUC / Cmax / Tmax / AUC(0-inf) / half-life: Crl:CD1(ICR), mouse, plasma
Protocol: The plasma pharmacokinetics and exposure levels of tozadendant have been documented in mice after oral administration, the same route of administration as tozadenant was dosed in the oncology efficacy studies.
The PK of tozadenant in mice was compared across a range of doses and dose frequencies. […]
Groups of mice of the Crl:CD1(ICR) strain were dosed, as follows:
The vehicle for the tozadenant in this mouse PK study was 1.6% (w/v) Avicel RC-591 (FMC), 0.2% (v/v) Tween 80, 0.18% (w/v) methylparaben and 0.02% (w/v) propylparaben in reverse osmosis water, pH 6.0±0.3. The 1.6% (w/v) Avicel RC-591 (FMC) was supplied by Biopolymer International, Brussels, Belgium. The 0.2% (v/v) Tween 80, 0.18% (w/v) methylparaben and 0.02% (w/v) propylparaben in reverse osmosis water, pH 6.0±0.3 was supplied by and Sigma-Aldrich Co Ltd, Poole, UK. This is the same formulation used for the mouse oncology model oral dosing.
The test article was administered orally by gavage, as follows:
Groups 1 to 4: Twice for one day (0 and 8 hours apart relative to initial dose)
Group 5: Twice for one day (0 and 12 hours apart relative to initial dose)
Blood samples for toxicokinetics (0.25 mL nominal) were taken from all toxicokinetic animals (subgroup 2), as follows:
For animals dosed at 0, 8 or 12 hour intervals, sampling time with respect to dose was symmetrical in each animal, for example, if an animal was sampled 0.5 hours after the first dose, it was sampled 0.5 hours after the second dose. The second sample obtained from each animal was collected under terminal anaesthesia.
Samples were taken from the orbital sinus (with the exception of Group 3 animals at the 10 hour bleed, which were taken by cardiac puncture) under isoflurane anaesthesia into K2EDTA. Samples were gently inverted to ensure mixing with anticoagulant, placed on a blood roller for at least one minute and then placed in a Kryorack until centrifugation.
Centrifugation was carried out at approximately 4-8° C. within one hour of collection. The resultant plasma from all samples was separated, transferred to uniquely labelled clear polypropylene tubes and frozen immediately at approximately <−10 to −30° C. Samples were analyzed at Covance.
Tozadenant was quantitated using protein precipitation followed by liquid chromatography mass spectrometry technique for quantification. This bioanalytical method was previously established and validated for tozadenant in mouse plasma.

[1] = Group 1, Male, 100 mg/kg/day (50 mg/kg/dose), oral, dosing at 0, 8 hr
[2] = Group 2, Male, 300 mg/kg/day (150 mg/kg/dose), oral, dosing at 0, 8 hr
[3] = Group 3, Male, 1000 mg/kg/day (500 mg/kg/dose), oral, dosing at 0, 8 hr
[4] = Group 4, 2000 mg/kg/day, dosing at 0, 8 hr
[5] = Group 4, Female, 2000 mg/kg/day (1000 mg/kg/dose), oral, dosing at 0, 8 hr
[6] = Group 4, Male, 2000 mg/kg/day (1000 mg/kg/dose), oral, dosing at 0, 8 hr
[7] = Group 5, 2000 mg/kg/day, dosing at 0, 12 hr
[8] = Group 5, Female, 2000 mg/kg/day (1000 mg/kg/dose), oral, dosing at 0, 12 hr
[9] = Group 5, Male, 2000 mg/kg/day (1000 mg/kg/dose), oral, dosing at 0, 12 hr

COc1ccc(N2CCOCC2)c2sc(NC(=O)N3CCC(C)(O)CC3)nc12 [SYN-115, 4-hydroxy-4-methyl-piperidine-1-carboxylic acid (4-methoxy-7-morpholin-4-yl-benzothiazol-2-yl)-amide]
AUC0-24/D [1]: 35.2
Cmax/D [1]: 7.64
AUC0-24/D [2]: 33.0
Cmax/D [2]: 5.73
AUC0-24/D [3]: 29.9
Cmax/D [3]: 3.61
Female:Male Ratio AUC0-24 [4]: 2.70
Female:Male Ratio Cmax [4]: 2.38
AUC0-24/D [5]: 58.0
Cmax/D [5]: 6.05
AUC0-24/D [6]: 21.5
Cmax/D [6]: 2.54
Female:Male Ratio AUC0-24 [7]: 2.02
Female:Male Ratio Cmax [7]: 1.28
AUC0-24/D [8]: 31.4
Cmax/D [8]: 4.12
AUC0-24/D [9]: 15.6
Cmax/D [9]: 3.22
AUC(0-t) (female, po, 2000 mg/kg/day, Group 4, Female, 2000 mg/kg/day (1000 mg/kg/dose), oral, dosing at 0, 8 hr, read-out: AUC0-8): 35.4 µg·h/mL
AUC(0-t) (female, po, 2000 mg/kg/day, Group 4, Female, 2000 mg/kg/day (1000 mg/kg/dose), oral, dosing at 0, 8 hr, read-out: AUC0-24): 116 µg·h/mL
AUC (female, po, 2000 mg/kg/day, Group 4, Female, 2000 mg/kg/day (1000 mg/kg/dose), oral, dosing at 0, 8 hr, read-out: AUC8-24): 80.6 µg·h/mL
Cmax (female, po, 2000 mg/kg/day, Group 4, Female, 2000 mg/kg/day (1000 mg/kg/dose), oral, dosing at 0, 8 hr, read-out: Cmax): 12.1 µg/mL
Tmax (female, po, 2000 mg/kg/day, Group 4, Female, 2000 mg/kg/day (1000 mg/kg/dose), oral, dosing at 0, 8 hr, read-out: Tmax): 14 h
AUC(0-t) (female, po, 2000 mg/kg/day, Group 5, Female, 2000 mg/kg/day (1000 mg/kg/dose), oral, dosing at 0, 12 hr, read-out: AUC0-12): 35.5 µg·h/mL
AUC(0-t) (female, po, 2000 mg/kg/day, Group 5, Female, 2000 mg/kg/day (1000 mg/kg/dose), oral, dosing at 0, 12 hr, read-out: AUC0-24): 62.7 µg·h/mL
AUC (female, po, 2000 mg/kg/day, Group 5, Female, 2000 mg/kg/day (1000 mg/kg/dose), oral, dosing at 0, 12 hr, read-out: AUC12-24): 27.2 µg·h/mL
Cmax (female, po, 2000 mg/kg/day, Group 5, Female, 2000 mg/kg/day (1000 mg/kg/dose), oral, dosing at 0, 12 hr, read-out: Cmax): 8.24 µg/mL
Tmax (female, po, 2000 mg/kg/day, Group 5, Female, 2000 mg/kg/day (1000 mg/kg/dose), oral, dosing at 0, 12 hr, read-out: Tmax): 1.2 h
Tmax (female, po, 2000 mg/kg/day, females, 0, 12 hour dosing, read-out: Tmax (following the first dose)): 1.2 h
Tmax (female, po, 2000 mg/kg/day, females, 2000 mg/kg/day, 0, 8 hours dosing, read-out: Tmax (after the second dose)): 6 h
AUC (male, oral, 100 mg/kg/day, mice, 100 mg/kg/day, read-out: Average AUC): 3.52 µg·h/mL
AUC(0-t) (male, po, 100 mg/kg/day, Group 1, Male, 100 mg/kg/day (50 mg/kg/dose), oral, dosing at 0, 8 hr, read-out: AUC0-8): 1.95 µg·h/mL
AUC(0-t) (male, po, 100 mg/kg/day, Group 1, Male, 100 mg/kg/day (50 mg/kg/dose), oral, dosing at 0, 8 hr, read-out: AUC0-24): 3.52 µg·h/mL
AUC (male, po, 100 mg/kg/day, Group 1, Male, 100 mg/kg/day (50 mg/kg/dose), oral, dosing at 0, 8 hr, read-out: AUC8-24): 1.57 µg·h/mL
Cmax (male, po, 100 mg/kg/day, Group 1, Male, 100 mg/kg/day (50 mg/kg/dose), oral, dosing at 0, 8 hr, read-out: Cmax): 0.764 µg/mL
Tmax (male, po, 100 mg/kg/day, Group 1, Male, 100 mg/kg/day (50 mg/kg/dose), oral, dosing at 0, 8 hr, read-out: Tmax): 9 h
Tmax (male, po, 100 mg/kg/day, mice, 100 mg/kg/day (50 mg/kg/dose×2) oral, 1 hour after the second dose, read-out: Average Tmax): 9 h
Cmax (male, po, 100 mg/kg/day, mice, 100 mg/kg/day (50 mg/kg/dose×2) oral, read-out: Average Cmax): 0.764 µg/mL
AUC(0-t) (male, po, 100 mg/kg/day, mice, 100 mg/kg/day (50 mg/kg/dose×2) oral, read-out: Average daily AUC0-24): 3.52 µg·h/mL
AUC(0-inf) (male, po, 300 mg/kg/day, Group 2, Male, 300 mg/kg/day (150 mg/kg/dose), oral, dosing at 0, 8 hr): 9.93 µg·h/mL
AUC(0-t) (male, po, 300 mg/kg/day, Group 2, Male, 300 mg/kg/day (150 mg/kg/dose), oral, dosing at 0, 8 hr, read-out: AUC0-8): 5.03 µg·h/mL
AUC(0-t) (male, po, 300 mg/kg/day, Group 2, Male, 300 mg/kg/day (150 mg/kg/dose), oral, dosing at 0, 8 hr, read-out: AUC0-24): 9.9 µg·h/mL
AUC (male, po, 300 mg/kg/day, Group 2, Male, 300 mg/kg/day (150 mg/kg/dose), oral, dosing at 0, 8 hr, read-out: AUC8-24): 4.87 µg·h/mL
Cmax (male, po, 300 mg/kg/day, Group 2, Male, 300 mg/kg/day (150 mg/kg/dose), oral, dosing at 0, 8 hr, read-out: Cmax): 1.72 µg/mL
Tmax (male, po, 300 mg/kg/day, Group 2, Male, 300 mg/kg/day (150 mg/kg/dose), oral, dosing at 0, 8 hr, read-out: Tmax): 8.8 h
half-life (male, po, 300 mg/kg/day, Group 2, Male, 300 mg/kg/day (150 mg/kg/dose), oral, dosing at 0, 8 hr, read-out: t1/2 (converted)): 0.971 h
AUC(0-t) (male, po, 1000 mg/kg/day, Group 3, Male, 1000 mg/kg/day (500 mg/kg/dose), oral, dosing at 0, 8 hr, read-out: AUC0-8): 13.8 µg·h/mL
AUC(0-t) (male, po, 1000 mg/kg/day, Group 3, Male, 1000 mg/kg/day (500 mg/kg/dose), oral, dosing at 0, 8 hr, read-out: AUC0-24): 29.9 µg·h/mL
AUC (male, po, 1000 mg/kg/day, Group 3, Male, 1000 mg/kg/day (500 mg/kg/dose), oral, dosing at 0, 8 hr, read-out: AUC8-24): 16.1 µg·h/mL
Cmax (male, po, 1000 mg/kg/day, Group 3, Male, 1000 mg/kg/day (500 mg/kg/dose), oral, dosing at 0, 8 hr, read-out: Cmax): 3.61 µg/mL
Tmax (male, po, 1000 mg/kg/day, Group 3, Male, 1000 mg/kg/day (500 mg/kg/dose), oral, dosing at 0, 8 hr, read-out: Tmax): 10.2 h
Tmax (male, po, 2000 mg/kg/day, 0, 8 hours dosing, all groups except females at 2000 mg/kg/day, read-out: Tmax (post dose, following the second dose)): 0.8 to 2.2 h
AUC(0-inf) (male, po, 2000 mg/kg/day, Group 4, Male, 2000 mg/kg/day (1000 mg/kg/dose), oral, dosing at 0, 8 hr): 43.1 µg·h/mL
AUC(0-t) (male, po, 2000 mg/kg/day, Group 4, Male, 2000 mg/kg/day (1000 mg/kg/dose), oral, dosing at 0, 8 hr, read-out: AUC0-8): 20.5 µg·h/mL
AUC(0-t) (male, po, 2000 mg/kg/day, Group 4, Male, 2000 mg/kg/day (1000 mg/kg/dose), oral, dosing at 0, 8 hr, read-out: AUC0-24): 43 µg·h/mL
AUC (male, po, 2000 mg/kg/day, Group 4, Male, 2000 mg/kg/day (1000 mg/kg/dose), oral, dosing at 0, 8 hr, read-out: AUC8-24): 22.5 µg·h/mL
Cmax (male, po, 2000 mg/kg/day, Group 4, Male, 2000 mg/kg/day (1000 mg/kg/dose), oral, dosing at 0, 8 hr, read-out: Cmax): 5.08 µg/mL
Tmax (male, po, 2000 mg/kg/day, Group 4, Male, 2000 mg/kg/day (1000 mg/kg/dose), oral, dosing at 0, 8 hr, read-out: Tmax): 9 h
half-life (male, po, 2000 mg/kg/day, Group 4, Male, 2000 mg/kg/day (1000 mg/kg/dose), oral, dosing at 0, 8 hr, read-out: t1/2 (converted)): 2.02 h
AUC(0-inf) (male, po, 2000 mg/kg/day, Group 5, Male, 2000 mg/kg/day (1000 mg/kg/dose), oral, dosing at 0, 12 hr): 31.3 µg·h/mL
AUC(0-t) (male, po, 2000 mg/kg/day, Group 5, Male, 2000 mg/kg/day (1000 mg/kg/dose), oral, dosing at 0, 12 hr, read-out: AUC0-12): 17.8 µg·h/mL
AUC(0-t) (male, po, 2000 mg/kg/day, Group 5, Male, 2000 mg/kg/day (1000 mg/kg/dose), oral, dosing at 0, 12 hr, read-out: AUC0-24): 31.1 µg·h/mL
AUC (male, po, 2000 mg/kg/day, Group 5, Male, 2000 mg/kg/day (1000 mg/kg/dose), oral, dosing at 0, 12 hr, read-out: AUC12-24): 13.3 µg·h/mL
Cmax (male, po, 2000 mg/kg/day, Group 5, Male, 2000 mg/kg/day (1000 mg/kg/dose), oral, dosing at 0, 12 hr, read-out: Cmax): 6.44 µg/mL
Tmax (male, po, 2000 mg/kg/day, Group 5, Male, 2000 mg/kg/day (1000 mg/kg/dose), oral, dosing at 0, 12 hr, read-out: Tmax): 1.1 h
half-life (male, po, 2000 mg/kg/day, Group 5, Male, 2000 mg/kg/day (1000 mg/kg/dose), oral, dosing at 0, 12 hr, read-out: t1/2 (converted)): 1.36 h
Tmax (male, po, 2000 mg/kg/day, males, 0, 12 hour dosing, read-out: Tmax (following the first dose)): 1.1 h
half-life (male, po, mice, all dose levels where calculated, read-out: Half-lives): 1 to 2 h

Source: patent publication US20220088024A1, “METHODS FOR TREATING CANCER USING TOZADENANT” (Biotie Therapies, Inc., priority 2018, published 2022)
